Measurements reported in article PMC8317129 (ACS infectious diseases, 2021).
Converted amounts (≈) assume the structure as drawn. “Also recorded” adds a separate entry of the source. Blank lines part the entries; values can stand above or below the molecule they belong to.

Columns and labels:
[1] = tested on: human colorectal adenocarcinoma (Caco-2) cells; experiment: MTS cytotoxicity assay; type: cell-based; settings: doses up to 128 μg/mL, 24 hours at 37 °C, compared to DMSO control
N. gonorrhoeae = experiment: broth microdilution MIC assay; type: cell-based, Neisseria gonorrhoeae; settings: for MIC50: concentration inhibiting 50% of the tested strains, panel of 30 clinical isolates
[2] = tested on: human endocervical (End1/E6E7) cells; experiment: MTS cytotoxicity assay; type: cell-based; settings: doses up to 128 μg/mL, 24 hours at 37 °C, compared to DMSO control
[3] = 6 months; cited from earlier work
[4] = azithromycin-resistant strain CDC 181, standard conditions in ambient air
[5] = Neisseria gonorrhoeae, ATCC700825, strain ATCC 700825
[6] = Neisseria gonorrhoeae, strain CDC 165
[7] = Neisseria gonorrhoeae, strain CDC 166
[8] = Neisseria gonorrhoeae, strain CDC 167
[9] = Neisseria gonorrhoeae, strain CDC 168
[10] = Neisseria gonorrhoeae, strain CDC 169
[11] = Neisseria gonorrhoeae, strain CDC 170
[12] = Neisseria gonorrhoeae, strain CDC 171
[13] = Neisseria gonorrhoeae, strain CDC 173
[14] = Neisseria gonorrhoeae, strain CDC 175
[15] = Neisseria gonorrhoeae, strain CDC 176
[16] = Neisseria gonorrhoeae, strain CDC 177
[17] = Neisseria gonorrhoeae, strain CDC 178, incubation in presence of 5% CO2
[18] = Neisseria gonorrhoeae, strain CDC 178, standard conditions in ambient air
[19] = Neisseria gonorrhoeae, strain CDC 179
[20] = Neisseria gonorrhoeae, strain CDC 180
[21] = Neisseria gonorrhoeae, strain CDC 181, incubation in presence of 5% CO2
[22] = Neisseria gonorrhoeae, strain CDC 182
[23] = Neisseria gonorrhoeae, strain CDC 183
[24] = Neisseria gonorrhoeae, strain CDC 184
[25] = Neisseria gonorrhoeae, strain CDC 185
[26] = Neisseria gonorrhoeae, strain CDC 187
[27] = Neisseria gonorrhoeae, strain CDC 189
[28] = Neisseria gonorrhoeae, strain CDC 190
[29] = Neisseria gonorrhoeae, strain CDC 197
[30] = Neisseria gonorrhoeae, strain CDC 202
[31] = Neisseria gonorrhoeae, strain CDC 211
[32] = Neisseria gonorrhoeae, strain MS11
[33] = Neisseria gonorrhoeae, strain WHO-K
[34] = Neisseria gonorrhoeae, strain WHO-X
[35] = Neisseria gonorrhoeae, three N. gonorrhoeae strains, CO2 conditions (Table S5)
[36] = Neisseria gonorrhoeae, three N. gonorrhoeae strains, non-CO2 conditions (Table S5)

MIC (N. gonorrhoeae; [4]): 0.5 µg/mL (≈ 1.64 µM)
MIC50 (N. gonorrhoeae): 0.5 µg/mL (≈ 1.64 µM)
range of MIC values (N. gonorrhoeae; panel of 30 N. gonorrhoeae clinical isolates): 0.06 to 2 µg/mL
MIC (N. gonorrhoeae; strain ATCC 700825): 0.5 µg/mL (≈ 1.64 µM)
MIC (N. gonorrhoeae; strain CDC 167): 0.5 µg/mL (≈ 1.64 µM)
MIC (N. gonorrhoeae; strain CDC 168): 0.5 µg/mL (≈ 1.64 µM)
MIC (N. gonorrhoeae; strain CDC 171): 0.5 µg/mL (≈ 1.64 µM)
MIC (N. gonorrhoeae; strain CDC 177): 0.5 µg/mL (≈ 1.64 µM)
MIC (N. gonorrhoeae; strain CDC 179): 2 µg/mL (≈ 6.57 µM)
MIC (N. gonorrhoeae; strain CDC 180): 0.5 µg/mL (≈ 1.64 µM)
MIC (N. gonorrhoeae; strain CDC 182): 0.5 µg/mL (≈ 1.64 µM)
MIC (N. gonorrhoeae; strain CDC 185): 0.5 µg/mL (≈ 1.64 µM)
MIC (N. gonorrhoeae; strain CDC 189): 0.06 µg/mL (≈ 0.197 µM)
MIC (N. gonorrhoeae; strain CDC 197): 2 µg/mL (≈ 6.57 µM)
MIC (N. gonorrhoeae; strain CDC 202): 2 µg/mL (≈ 6.57 µM)
MIC (N. gonorrhoeae; strain CDC 211): 2 µg/mL (≈ 6.57 µM)
SMILES: NS(=O)(=O)c1nnc(NC(=O)CC2CCCCC2)s1 [analog 20]
toxic effects on cell viability [1]: no toxic effects; also recorded: non-toxic
toxic effects on cell viability [2]: no toxic effects; also recorded: non-toxic

MIC (N. gonorrhoeae; [35]): > 64 µg/mL
MIC (N. gonorrhoeae; [36]): > 64 µg/mL
SMILES: Nc1ccc(S(=O)(=O)Nc2nccs2)cc1 [sulfathiazole]

MIC90 (N. gonorrhoeae; Neisseria gonorrhoeae): 4 µg/mL (≈ 18 µM)
MIC (N. gonorrhoeae; [5]): 0.5 µg/mL (≈ 2.25 µM)
MIC50 (N. gonorrhoeae; Neisseria gonorrhoeae): 2 µg/mL (≈ 9 µM)
MIC (N. gonorrhoeae; [6]): 4 µg/mL (≈ 18 µM)
MIC (N. gonorrhoeae; [7]): 4 µg/mL (≈ 18 µM)
MIC (N. gonorrhoeae; [8]): 2 µg/mL (≈ 9 µM)
MIC (N. gonorrhoeae; [9]): 4 µg/mL (≈ 18 µM)
MIC (N. gonorrhoeae; [10]): 4 µg/mL (≈ 18 µM)
MIC (N. gonorrhoeae; [11]): 1 µg/mL (≈ 4.5 µM)
MIC (N. gonorrhoeae; [12]): 2 µg/mL (≈ 9 µM)
MIC (N. gonorrhoeae; [13]): 1 µg/mL (≈ 4.5 µM)
MIC (N. gonorrhoeae; [14]): 2 µg/mL (≈ 9 µM)
MIC (N. gonorrhoeae; [15]): 1 µg/mL (≈ 4.5 µM)
MIC (N. gonorrhoeae; [16]): 1 µg/mL (≈ 4.5 µM)
MIC (N. gonorrhoeae; [17]): > 64 µg/mL
MIC (N. gonorrhoeae; [18]): 2 µg/mL (≈ 9 µM)
MIC (N. gonorrhoeae; [19]): 4 µg/mL (≈ 18 µM)
MIC (N. gonorrhoeae; [20]): 2 µg/mL (≈ 9 µM)
MIC (N. gonorrhoeae; [21]): > 64 µg/mL
MIC (N. gonorrhoeae; [22]): 4 µg/mL (≈ 18 µM)
MIC (N. gonorrhoeae; [23]): 2 µg/mL (≈ 9 µM)
MIC (N. gonorrhoeae; [24]): 2 µg/mL (≈ 9 µM)
MIC (N. gonorrhoeae; [25]): 4 µg/mL (≈ 18 µM)
MIC (N. gonorrhoeae; [26]): 2 µg/mL (≈ 9 µM)
MIC (N. gonorrhoeae; [27]): 2 µg/mL (≈ 9 µM)
MIC (N. gonorrhoeae; [28]): 2 µg/mL (≈ 9 µM)
MIC (N. gonorrhoeae; [29]): 4 µg/mL (≈ 18 µM)
MIC (N. gonorrhoeae; [30]): 4 µg/mL (≈ 18 µM)
MIC (N. gonorrhoeae; [31]): 1 µg/mL (≈ 4.5 µM)
MIC (N. gonorrhoeae; [32]): 0.5 µg/mL (≈ 2.25 µM)
MIC (N. gonorrhoeae; [33]): 1 µg/mL (≈ 4.5 µM)
MIC (N. gonorrhoeae; Neisseria gonorrhoeae, strain WHO-W): 2 µg/mL (≈ 9 µM)
MIC (N. gonorrhoeae; [34]): 1 µg/mL (≈ 4.5 µM)
MIC (N. gonorrhoeae; [36]): 0.125 to 1 µg/mL (≈ 0.562 to 4.5 µM)
MIC (N. gonorrhoeae; [4]): 4 µg/mL (≈ 18 µM)
SMILES: CC(=O)Nc1nnc(S(N)(=O)=O)s1 [AZM, acetazolamide]
patients tolerating > 1 g/day [3]: 90%
patients tolerating up to 4 g/day [3]: 45%

The next lines start with the molecule.

SMILES: CC[C@H]1OC(=O)[C@H](C)[C@@H](O[C@H]2C[C@@](C)(OC)[C@@H](O)[C@H](C)O2)[C@H](C)[C@@H](O[C@@H]2O[C@H](C)C[C@H](N(C)C)[C@H]2O)[C@](C)(O)C[C@@H](C)CN(C)[C@H](C)[C@@H](O)[C@]1(C)O [AZI, azithromycin]
MIC (N. gonorrhoeae; Neisseria gonorrhoeae): 0.125 µg/mL (≈ 0.167 µM)
MIC90 (N. gonorrhoeae; Neisseria gonorrhoeae): 4 µg/mL (≈ 5.34 µM)
MIC (N. gonorrhoeae; [5]): 0.25 µg/mL (≈ 0.334 µM)
MIC50 (N. gonorrhoeae; Neisseria gonorrhoeae): 1 µg/mL (≈ 1.34 µM)
MIC (N. gonorrhoeae; [6]): 2 µg/mL (≈ 2.67 µM)
MIC (N. gonorrhoeae; [7]): 2 µg/mL (≈ 2.67 µM)
MIC (N. gonorrhoeae; [8]): 4 µg/mL (≈ 5.34 µM)
MIC (N. gonorrhoeae; [9]): 1 µg/mL (≈ 1.34 µM)
MIC (N. gonorrhoeae; [10]): 1 µg/mL (≈ 1.34 µM)
MIC (N. gonorrhoeae; [11]): 1 µg/mL (≈ 1.34 µM)
MIC (N. gonorrhoeae; [12]): 1 µg/mL (≈ 1.34 µM)
MIC (N. gonorrhoeae; [13]): 0.5 µg/mL (≈ 0.668 µM)
MIC (N. gonorrhoeae; [14]): 4 µg/mL (≈ 5.34 µM)
MIC (N. gonorrhoeae; [15]): 0.5 µg/mL (≈ 0.668 µM)
MIC (N. gonorrhoeae; [16]): 0.5 µg/mL (≈ 0.668 µM)
MIC (N. gonorrhoeae; [17]): 2 µg/mL
MIC (N. gonorrhoeae; [18]): 2 µg/mL (≈ 2.67 µM)
MIC (N. gonorrhoeae; [19]): 4 µg/mL (≈ 5.34 µM)
MIC (N. gonorrhoeae; [20]): 0.5 µg/mL (≈ 0.668 µM)
MIC (N. gonorrhoeae; [21]): > 64 µg/mL
MIC (N. gonorrhoeae; [22]): 1 µg/mL (≈ 1.34 µM)
MIC (N. gonorrhoeae; [23]): 1 µg/mL (≈ 1.34 µM)
MIC (N. gonorrhoeae; [24]): 1 µg/mL (≈ 1.34 µM)
MIC (N. gonorrhoeae; [25]): 1 µg/mL (≈ 1.34 µM)
MIC (N. gonorrhoeae; [26]): 4 µg/mL (≈ 5.34 µM)
MIC (N. gonorrhoeae; [27]): 0.5 µg/mL (≈ 0.668 µM)
MIC (N. gonorrhoeae; [28]): 1 µg/mL (≈ 1.34 µM)
MIC (N. gonorrhoeae; [29]): 2 µg/mL (≈ 2.67 µM)
MIC (N. gonorrhoeae; [30]): 16 µg/mL (≈ 21.4 µM)
MIC (N. gonorrhoeae; [31]): 1 µg/mL (≈ 1.34 µM)
MIC (N. gonorrhoeae; [32]): 0.25 µg/mL (≈ 0.334 µM)
MIC (N. gonorrhoeae; [33]): 0.25 µg/mL (≈ 0.334 µM)
MIC (N. gonorrhoeae; [34]): 0.25 µg/mL (≈ 0.334 µM)
MIC50 (N. gonorrhoeae): 2 µg/mL (≈ 2.67 µM)

SMILES: Cc1cc(NS(=O)(=O)c2ccc(N)cc2)no1 [sulfamethoxazole]
MIC (N. gonorrhoeae; [35]): > 64 µg/mL
MIC (N. gonorrhoeae; [36]): > 64 µg/mL

SMILES: COc1ncnc(NS(=O)(=O)c2ccc(N)cc2)c1OC [sulfdoxine]
MIC (N. gonorrhoeae; three N. gonorrhoeae strains, CO2 conditions (Table S5)): > 64 µg/mL
MIC (N. gonorrhoeae; three N. gonorrhoeae strains, non-CO2 conditions (Table S5)): > 64 µg/mL
